Active and inactive are the calls of the source. The rule behind the calls is not given here.
Tests used:
[1] = system: Rattus norvegicus; test: Antinociceptive activity in rat at 120 mg/kg, sc by D'Amour-Smith thermal stimulus test; type: functional, organism-based; set-up: dose 120 mg/kg
[2] = species on record: Rattus norvegicus; test: Antinociceptive activity in rat assessed as protection from p-phenylquinone-induced writhing; type: functional
[3] = species on record: Rattus norvegicus; test: Inhibition of meperidine-induced antinociceptive activity in rat by D'Amour-Smith thermal stimulus test; type: functional
[4] = system: Rattus norvegicus; test: Antinociceptive activity in rat assessed as protection from p-phenylquinone-induced writhing at 100 mg/kg, sc; type: functional, organism-based; set-up: dose 100 mg/kg
[5] = system: Rattus norvegicus; test: Inhibition of meperidine-induced antinociceptive activity in rat at 80 mg/kg, sc by D'Amour-Smith thermal stimulus test; type: functional, organism-based; set-up: dose 80 mg/kg
[6] = system: Rattus norvegicus; test: Antinociceptive activity in rat at 60 mg/kg, sc by D'Amour-Smith thermal stimulus test; type: functional, organism-based; set-up: dose 60 mg/kg
[7] = system: Rattus norvegicus; test: Inhibition of meperidine-induced antinociceptive activity in rat at 40 mg/kg, sc by D'Amour-Smith thermal stimulus test; type: functional, organism-based; set-up: dose 40 mg/kg

SMILES	Activity [1]	ED50 [2] [mg/kg]	AD50 [3]	other results
CC(C)=CCN1CC[C@]2(C)c3cc(O)ccc3C[C@H]1[C@H]2C [(+)-PENTAZOCINE]	inactive	2.3	3.9 mg/kg	–
C/C(=C\CN1CC[C@@]2(C)c3cc(O)ccc3C[C@@H]1[C@@H]2C)C(=O)O (racemic)	–	–	inactive	Activity [4]: inactive
C/C(=C\CN1CC[C@@]2(C)c3cc(O)ccc3C[C@@H]1[C@@H]2C)CO (racemic)	–	37	>320 mg/kg	–
CCOC(=O)CN1CC[C@@]2(C)c3cc(O)ccc3C[C@@H]1[C@@H]2C (racemic)	inactive	–	66 mg/kg	–
C[C@H]1[C@H]2Cc3ccc(O)cc3[C@]1(C)CCN2CCC(C)(C)O (racemic)	inactive	37	–	inhibition [5]: inactive
CC(C)C(=O)CN1CC[C@@]2(C)c3cc(O)ccc3C[C@@H]1[C@@H]2C (racemic)	–	–	2.8 mg/kg	–
CC(=O)CCN1CC[C@@]2(C)c3cc(O)ccc3C[C@@H]1[C@@H]2C (racemic)	inactive	22	1.7 mg/kg	–
C[C@H]1[C@H]2Cc3ccc(O)cc3[C@]1(C)CCN2CC(=O)O (racemic)	–	–	–	Activity [6]: inactive; inhibition [7]: inactive

— ChEMBL document CHEMBL3244356, “Synthesis of some pentazocine metabolites and related compounds” (1977)
